Experimental data: PMC8212695, “Discovery of a Highly Conserved Peptide in the Iron Transporter Melanotransferrin that Traverses an Intact Blood Brain Barrier and Localizes in Neural Cells” (Frontiers in Neuroscience, 2021)
Read-outs that look alike come from different tables or passages of the source. Where no end group is shown, it is not given here.

How the values were obtained:
[1] = test system: in vitro BBB model: primary bovine brain capillary endothelial cells supported by primary rat glial cells; assay: In vitro BBB model transcytosis of trypsin-digested sMTf, peptides identified by mass spectrometry; conditions: for Ablum 120:Area: MS peak area in abluminal compartment at 120 min; for Ablum 120:Area / Lum 120:Area: trypsin-digested sMTf 0.25 mg/mL luminal, Ringer-HEPES, 37°C, 2 h, LC-MS, one peptide may have several lines; for Lum 120:Area: MS peak area in luminal compartment at 120 min; for presence of MTf fragments on the abluminal side: after 2 h, SDS-PAGE and/or mass spectrometry
[2] = test system: in vitro BBB model: primary bovine brain capillary endothelial cells supported by primary rat glial cells
[3] = test system: in vitro BBB model: primary bovine brain capillary endothelial cells supported by primary rat glial cells; remark: listed apart in the source
[4] = In vivo BBB penetration of Cy5-tagged peptides, 3D deconvolution fluorescence microscopy; conditions: mice, IV, Cy5 conjugates
[5] = stable isotopic LC-MS; ref Singh et al., 2020; cited from earlier work
Source text: In the context of the present study, the variability in conformation, glycosylation, anchoring and metal binding, presents potential complications to the use of sMTf as a robust, reproducible, clinically useful drug delivery vehicle. Therefore, to improve upon the utility of sMTf as a drug-delivery vector, we fragmented the protein in order to identify the minimally active region that retains the capability of carrying molecular cargo across the BBB. We report the identification of a 12 amino acid peptide (MTfp; […]), derived from melanotransferrin protein, that retains the ability cr ...

[6] = test system: neurons, astrocytes, microglia, lysosomes, endosomes in the brain; assay: Cellular and subcellular localization of MTfp in mouse brain, 3D confocal microscopy; assay type: in vivo; conditions: mice injected IV with Cy5-MTfp
Protocol: Three sets of 3D fluorescence microscopy experiments were performed. The first set measured the BBB penetration of Cy5 tagged MTfp using DeltaVision Elite integrated with Huygens Deconvolution Software (GE, United States). As an extension of this, a set of sections were prepared to assess the cellular localization of the Cy-5 tagged MTfp in the CNS. The second set of experiments addressed the localization of Cy-5 tagged MTfp in various cell types and subcellular objects using the Leica SP8 X system (Leica, Germany).
The brains were removed and fixed with 4% paraformaldehyde overnight and then transferred into PBS+0.01% sodium azide and stored at 4°C. The brains were embedded in 4% agarose, fixed onto the microtome stage and sectioned (20 μm) at 4°C. The sections were stained with DAPI and then mounted on microscopic slides. Glass coverslips were mounted on the sections using Prolong Gold antifade reagent. In another experiment, to assess the localization of the peptide in the CNS, brains from mice injected with either PBS or Cy5-MTfp followed by FITC- tomato lectin. The brains were collected and processed as stated above. These were then incubated with antibodies targeted against neurons (NeuN; ab177487), microglia (TMEM; ab209064), astrocytes (GFAP; ab7260), lysosomes (LAMP-1; sc-19992-AF546) and endosomes (EEA-1; sc-137130), secondary antibody staining was done for unconjugated primary antibodies with Alexa fluor 680 goat anti-mouse IgG (cat# A21058), Alexa fluor 680 goat anti-rabbit IgG (Cat #A21076) and then counter-stained with DAPI, cover slipped, imaged and quantitatively analyzed to determine the extent of localization of various cell types and subcellular objects with MTfp.
The microscopy experiments, which quantitatively assessed the cellular location of MTfp within the brain, were performed using Leica SP8 X system (Leica, Germany). 3D confocal images were acquired with a Leica AOBS SP8 laser scanning confocal microscope (Leica, Heidelberg, Germany) using a high-resolution Leica 63X/1.4 or 40X/1.3 Plan-Apochromat oil immersion objective lens. Excitations were performed using either diode or tunable white light laser sources. All images and spectral data (except DAPI) were generated using the highly sensitive HyD detectors (with gated option) in de-scanned mode. The backscattered emission signals from the sample were delivered through the tunable filter (AOBS), the detection pinhole, spectral dispersion prism, and finally to the PMT/HyD detectors. For 3D image data set acquisition, the excitation beam was first focused at the maximum signal intensity focal position within the brain tissue sample and the appropriate HyD gain levels were then selected to obtain the pixel intensities within range of 0–255 (8-bit images) using a color gradient function. The beginning and end of the 3D stack were set based on the signal level degradation. Series of 2D images for a selected 3D stack volume were then acquired with 1,024 × 1,024 pixels. […]
For each tissue volume reported here, z-section images were compiled and finally the 3D image restoration was performed using VOLOCITY software (Perkin Elmar, United Kingdom). The volume estimation was performed on the 3D image data sets recorded from four or more cortical area of brain tissue samples. Algorithms were developed to automate the quantification of the test materials and blood capillaries, and to accurately quantify test materials localized in blood capillaries vs. brain parenchyma. […]

[7] = mouse, in vivo, iv

Substance | Ablum 120:Area [1] | Lum 120:Area [1] | presence of MTf fragments on the abluminal side [1] | Abluminal vs. luminal [2] [%] | Abluminal vs. total [2] [%] | Ablum 120:Area [3] | Lum 120:Area [3] | other results
ADTDGGLIFR | 1.59E+10 | 1.11E+10 | identified in the abluminal medium | 2.16 | 1.60 | – | – | –
ADTDGGLIFRLLNEGQR | – | – | – | – | – | 0.00E+00 | 3.69E+07 | –
ADVTEWR [ADVTEWR] | 1.05E+10 | 9.31E+08 | identified in the abluminal medium | 1.32 | 0.82 | – | – | –
AVSDYFGGSCVPGAGETSYSESLCR | – | – | – | – | – | 5.49E+08 | 5.51E+09 | –
DSSHAFTLDELR [MTfp] | 5.87E+09 | 1.03E+10 | identified in the abluminal medium | 2.41 | 1.90 | – | – | BBB penetration efficiency compared with RVGp [4]: statistically similar; initial rate of entry into the brain [5]: 2.1 nM/min; MTfp found in the early endosomes ([6]; EEA-1 marker): approximately 20%; MTfp found in the lysosomes ([6]; LAMP-1 marker): 40%; astrocytes expressing GFAP co-labeled with MTfp ([6]; fluorescence volume fraction): 70%; microglia expressing TMEM co-labeled with MTfp ([6]; fluorescence volume fraction): 80%; neurons expressing NeuN co-labeled with MTfp ([6]; fluorescence volume fraction): 90%
DSSHAFTLDELRGK | – | – | – | – | – | 1.99E+07 | 0.00E+00 | –
DSSHAFTLDELRYC [MTfp-Cy5] | – | – | – | – | – | – | – | VT ABVP (Volume of Parenchymal Test Article normalized to Parenchymal Volume), Mean [7]: 1.0 8E-03; fractional fluorescence in the brain parenchyma compared to mice injected with PBS or revMTfp-Cy5 [7]: Approximately two
EHGLKPVVGEVYDQEVGTSYYAVAVVRR | – | – | – | – | – | 1.70E+07 | 0.00E+00 | –
GDSSGEGVCDKSPLER | – | – | – | – | – | 1.93E+09 | 5.08E+08 | –
IQAEQVDAVTLSGEDIYTAGK | – | – | – | – | – | 0.00E+00 | 3.48E+06 | –
LCRGDSSGEGVCDK | – | – | – | – | – | 2.64E+05 | 2.17E+05 | –
NYPSSLCALCVGDEQGR | – | – | – | – | – | 7.34E+07 | 6.15E+08 | –
RLEDLTFAHSSDYC [revMTfp-Cy5, reference compound] | – | – | – | – | – | – | – | VT ABVP (Volume of Parenchymal Test Article normalized to Parenchymal Volume), Mean [7]: 6.6 7E-04
TVGWNVPVGYLVESGR | – | – | – | – | – | 0.00E+00 | 9.38E+07 | –
VPAHAVVVR | 1.24E+08 | 3.48E+07 | identified in the abluminal medium | 2.49 | 1.52 | – | – | –
YYDYSGAFR | 6.41E+09 | 1.00E+09 | identified in the abluminal medium | 0.13 | 0.05 | – | – | –
